Activity calls are given as the source filed them. The calls are words filed in the database; no cut-off is given here.
Test system: not listed separately
Experiment: Cmax in CD-1 mouse plasma at 10 mg/kg, po administered via gavage as single dose by LC/MS/MS analysis
Type: ADME, organism-based
Design: dose 10 mg/kg, route oral
Details: not given

| SMILES | Cmax [nM] |
| --- | --- |
| O=C(Nc1ccncc1)C1CCCN1S(=O)(=O)c1ccc2ccccc2c1 (stereo not drawn) | < 100 |
| O=C(Cc1ccc(-c2ccccc2)cc1)NCc1ccccc1 | < 100 |
| NC(=O)c1ccccc1NC(=O)c1cccnc1N1CCCCC1 | < 100 |
| CCN(CC)c1ccc2c(c1)OC(N)=C(C#N)C2c1ccccc1 (stereo not drawn) | < 100 |
| COc1ccccc1C(=O)N1CCN(c2ccccc2OC)CC1 | < 100 |
| COC(=O)c1[nH]c2c(c1C)C(=O)CC(c1cccs1)C2 (stereo not drawn) | < 100 |
| CCOC(=O)c1[nH]c2c(c1C)C(=O)CC(c1ccccc1Cl)C2 (stereo not drawn) | < 100 |
| CCc1nnc(NC(=O)c2ccoc2COc2ccccc2)s1 | < 100 |
| COc1ccc(S(=O)(=O)N2CCOc3ccccc32)cc1 | < 100 |
| COc1cccc(N2CCN(C(=O)c3cc(C)ccc3OC)CC2)c1 | < 100 |
| CCOC(=O)c1[nH]c(C)c(C(=O)c2ccc(C)cc2)c1C | < 100 |
| CN(C)c1ccc2c(c1)OC(N)=C(C#N)C2c1cccc(F)c1 (stereo not drawn) | < 100 |
| N#Cc1c(NC(=O)CCc2cccs2)sc2c1CCCC2 | < 100 |
| CCOc1ccc(Nc2nc(-c3c(C)nc4sccn34)cs2)cc1 | < 100 |
| Cc1c(C(=O)OC(C)C)[nH]c2c1C(=O)CC(c1cccs1)C2 (stereo not drawn) | < 100 |
| COc1cc(C(=O)c2cc(Cl)ccc2N)cc(OC)c1OC | < 100 |
| CCOc1ccccc1C1C(C#N)=C(N)Oc2cc(N(C)C)ccc21 (stereo not drawn) | < 100 |

Test system: not listed separately
Experiment: Cytotoxicity against mouse N2a-cl3 cells assessed as cell viability after 2 days by calcein AM assay
Type: cell-based
Details: n2a-cl3, 48 h

| SMILES | Activity |
| --- | --- |
| NC(=O)c1ccccc1NC(=O)c1cccnc1N1CCCCC1 | Non-toxic |

Test system: T98G
Experiment: Cytotoxicity against human T98G cells assessed as decrease in cell viability after 2 days by calcein AM assay
Type: cell-based
Details: 48 h, read-out: LC50 (the source's name)

| SMILES | CC50 [µM] |
| --- | --- |
| O=C(Cc1ccc(-c2ccccc2)cc1)NCc1ccccc1 | > 10 |

Test system: T98G
Experiment: cells
Details: Homo sapiens, 48 h

| SMILES | EC50 [nM] |
| --- | --- |
| O=C(Nc1ccncc1)C1CCCN1S(=O)(=O)c1ccc2ccccc2c1 (stereo not drawn) | 1520 |
| O=C(Cc1ccc(-c2ccccc2)cc1)NCc1ccccc1 | 440 |
| NC(=O)c1ccccc1NC(=O)c1cccnc1N1CCCCC1 | 1020 |
| CCN(CC)c1ccc2c(c1)OC(N)=C(C#N)C2c1ccccc1 (stereo not drawn) | 170 |
| COc1ccccc1C(=O)N1CCN(c2ccccc2OC)CC1 | 3240 |
| COC(=O)c1[nH]c2c(c1C)C(=O)CC(c1cccs1)C2 (stereo not drawn) | 410 |
| CCOC(=O)c1[nH]c2c(c1C)C(=O)CC(c1ccccc1Cl)C2 (stereo not drawn) | 450 |
| CCc1nnc(NC(=O)c2ccoc2COc2ccccc2)s1 | 2240 |
| COc1ccc(S(=O)(=O)N2CCOc3ccccc32)cc1 | 1320 |
| COc1cccc(N2CCN(C(=O)c3cc(C)ccc3OC)CC2)c1 | 270 |
| CCOC(=O)c1[nH]c(C)c(C(=O)c2ccc(C)cc2)c1C | 530 |
| CN(C)c1ccc2c(c1)OC(N)=C(C#N)C2c1cccc(F)c1 (stereo not drawn) | 30 |
| N#Cc1c(NC(=O)CCc2cccs2)sc2c1CCCC2 | 150 |
| CCOc1ccc(Nc2nc(-c3c(C)nc4sccn34)cs2)cc1 | 30 |
| Cc1c(C(=O)OC(C)C)[nH]c2c1C(=O)CC(c1cccs1)C2 (stereo not drawn) | 240 |
| COc1cc(C(=O)c2cc(Cl)ccc2N)cc(OC)c1OC | 90 |

Test system: not listed separately
Experiment: Cmax in CD-1 mouse brain at 10 mg/kg, po administered via gavage as single dose by LC/MS/MS analysis
Type: ADME, organism-based
Design: dose 10 mg/kg, route oral
Details: not given

| SMILES | Cmax [nM] |
| --- | --- |
| O=C(Nc1ccncc1)C1CCCN1S(=O)(=O)c1ccc2ccccc2c1 (stereo not drawn) | < 100 |
| O=C(Cc1ccc(-c2ccccc2)cc1)NCc1ccccc1 | < 100 |
| NC(=O)c1ccccc1NC(=O)c1cccnc1N1CCCCC1 | < 100 |
| CCN(CC)c1ccc2c(c1)OC(N)=C(C#N)C2c1ccccc1 (stereo not drawn) | < 100 |
| COc1ccccc1C(=O)N1CCN(c2ccccc2OC)CC1 | < 100 |
| COC(=O)c1[nH]c2c(c1C)C(=O)CC(c1cccs1)C2 (stereo not drawn) | < 100 |
| CCOC(=O)c1[nH]c2c(c1C)C(=O)CC(c1ccccc1Cl)C2 (stereo not drawn) | < 100 |
| CCc1nnc(NC(=O)c2ccoc2COc2ccccc2)s1 | < 100 |
| COc1ccc(S(=O)(=O)N2CCOc3ccccc32)cc1 | < 100 |
| COc1cccc(N2CCN(C(=O)c3cc(C)ccc3OC)CC2)c1 | < 100 |
| CCOC(=O)c1[nH]c(C)c(C(=O)c2ccc(C)cc2)c1C | < 100 |
| CN(C)c1ccc2c(c1)OC(N)=C(C#N)C2c1cccc(F)c1 (stereo not drawn) | < 100 |
| N#Cc1c(NC(=O)CCc2cccs2)sc2c1CCCC2 | < 100 |
| CCOc1ccc(Nc2nc(-c3c(C)nc4sccn34)cs2)cc1 | < 100 |
| Cc1c(C(=O)OC(C)C)[nH]c2c1C(=O)CC(c1cccs1)C2 (stereo not drawn) | < 100 |
| COc1cc(C(=O)c2cc(Cl)ccc2N)cc(OC)c1OC | < 100 |
| CCOc1ccccc1C1C(C#N)=C(N)Oc2cc(N(C)C)ccc21 (stereo not drawn) | < 100 |

Test system: Liver microsome
Experiment: Half life in human liver microsomes at 1 uM by LC/MS/MS analysis
Type: ADME
Details: not given

| SMILES | t1/2 [min] |
| --- | --- |
| O=C(Cc1ccc(-c2ccccc2)cc1)NCc1ccccc1 | 10.3 |
| NC(=O)c1ccccc1NC(=O)c1cccnc1N1CCCCC1 | 16.7 |
| COc1ccc(S(=O)(=O)N2CCOc3ccccc32)cc1 | 2 |
| COc1cccc(N2CCN(C(=O)c3cc(C)ccc3OC)CC2)c1 | 4.5 |
| CCOc1ccc(Nc2nc(-c3c(C)nc4sccn34)cs2)cc1 | 9.6 |
| Cc1c(C(=O)OC(C)C)[nH]c2c1C(=O)CC(c1cccs1)C2 (stereo not drawn) | 9.9 |
| CCOc1ccccc1C1C(C#N)=C(N)Oc2cc(N(C)C)ccc21 (stereo not drawn) | 9.7 |

Test system: not listed separately
Experiment: Half life in mouse liver microsomes at 1 uM by LC/MS/MS analysis
Type: ADME, Microsome
Details: not given

| SMILES | t1/2 [min] |
| --- | --- |
| O=C(Cc1ccc(-c2ccccc2)cc1)NCc1ccccc1 | 18.5 |
| NC(=O)c1ccccc1NC(=O)c1cccnc1N1CCCCC1 | 2.8 |
| COc1ccc(S(=O)(=O)N2CCOc3ccccc32)cc1 | 0.7 |
| COc1cccc(N2CCN(C(=O)c3cc(C)ccc3OC)CC2)c1 | 1.6 |
| CCOc1ccc(Nc2nc(-c3c(C)nc4sccn34)cs2)cc1 | 4.5 |
| Cc1c(C(=O)OC(C)C)[nH]c2c1C(=O)CC(c1cccs1)C2 (stereo not drawn) | 3.2 |
| CCOc1ccccc1C1C(C#N)=C(N)Oc2cc(N(C)C)ccc21 (stereo not drawn) | 1.9 |

Test system: not listed separately
Experiment: Metabolic stability in mouse liver microsomes assessed as compound remaining at 1 uM after 60 mins by LC/MS/MS analysis
Type: ADME, Microsome
Details: 1 h

| SMILES | Stability [%] |
| --- | --- |
| O=C(Cc1ccc(-c2ccccc2)cc1)NCc1ccccc1 | 5.8 |
| NC(=O)c1ccccc1NC(=O)c1cccnc1N1CCCCC1 | 0 |
| COc1ccc(S(=O)(=O)N2CCOc3ccccc32)cc1 | 0 |
| COc1cccc(N2CCN(C(=O)c3cc(C)ccc3OC)CC2)c1 | 0 |
| CCOc1ccc(Nc2nc(-c3c(C)nc4sccn34)cs2)cc1 | 0.5 |
| Cc1c(C(=O)OC(C)C)[nH]c2c1C(=O)CC(c1cccs1)C2 (stereo not drawn) | 0.1 |
| CCOc1ccccc1C1C(C#N)=C(N)Oc2cc(N(C)C)ccc21 (stereo not drawn) | 0.1 |

Test system: not listed separately
Experiment: Cmax in CD-1 mouse brain at 10 mg/kg, ip administered as single dose by LC/MS/MS analysis
Type: ADME, organism-based
Design: dose 10 mg/kg, route intraperitoneal
Details: not given

| SMILES | Cmax [µM] |
| --- | --- |
| O=C(Nc1ccncc1)C1CCCN1S(=O)(=O)c1ccc2ccccc2c1 (stereo not drawn) | ≤ 16.2 |
| O=C(Cc1ccc(-c2ccccc2)cc1)NCc1ccccc1 | ≤ 16.2 |
| NC(=O)c1ccccc1NC(=O)c1cccnc1N1CCCCC1 | ≤ 16.2 |
| CCN(CC)c1ccc2c(c1)OC(N)=C(C#N)C2c1ccccc1 (stereo not drawn) | ≤ 16.2 |
| COc1ccccc1C(=O)N1CCN(c2ccccc2OC)CC1 | ≤ 16.2 |
| COC(=O)c1[nH]c2c(c1C)C(=O)CC(c1cccs1)C2 (stereo not drawn) | ≤ 16.2 |
| CCOC(=O)c1[nH]c2c(c1C)C(=O)CC(c1ccccc1Cl)C2 (stereo not drawn) | ≤ 16.2 |
| CCc1nnc(NC(=O)c2ccoc2COc2ccccc2)s1 | ≤ 16.2 |
| COc1ccc(S(=O)(=O)N2CCOc3ccccc32)cc1 | ≤ 16.2 |
| COc1cccc(N2CCN(C(=O)c3cc(C)ccc3OC)CC2)c1 | ≤ 16.2 |
| CCOC(=O)c1[nH]c(C)c(C(=O)c2ccc(C)cc2)c1C | ≤ 16.2 |
| CN(C)c1ccc2c(c1)OC(N)=C(C#N)C2c1cccc(F)c1 (stereo not drawn) | ≤ 16.2 |
| N#Cc1c(NC(=O)CCc2cccs2)sc2c1CCCC2 | ≤ 16.2 |
| CCOc1ccc(Nc2nc(-c3c(C)nc4sccn34)cs2)cc1 | ≤ 16.2 |
| Cc1c(C(=O)OC(C)C)[nH]c2c1C(=O)CC(c1cccs1)C2 (stereo not drawn) | ≤ 16.2 |
| COc1cc(C(=O)c2cc(Cl)ccc2N)cc(OC)c1OC | ≤ 16.2 |
| CCOc1ccccc1C1C(C#N)=C(N)Oc2cc(N(C)C)ccc21 (stereo not drawn) | ≤ 16.2 |

Test system: Liver microsome
Experiment: Metabolic stability in human liver microsomes assessed as compound remaining at 1 uM after 60 mins by LC/MS/MS analysis
Type: ADME
Details: 1 h

| SMILES | Stability [%] |
| --- | --- |
| O=C(Cc1ccc(-c2ccccc2)cc1)NCc1ccccc1 | 4.6 |
| NC(=O)c1ccccc1NC(=O)c1cccnc1N1CCCCC1 | 8.3 |
| COc1ccc(S(=O)(=O)N2CCOc3ccccc32)cc1 | 0 |
| COc1cccc(N2CCN(C(=O)c3cc(C)ccc3OC)CC2)c1 | 1 |
| CCOc1ccc(Nc2nc(-c3c(C)nc4sccn34)cs2)cc1 | 1.5 |
| Cc1c(C(=O)OC(C)C)[nH]c2c1C(=O)CC(c1cccs1)C2 (stereo not drawn) | 1.6 |
| CCOc1ccccc1C1C(C#N)=C(N)Oc2cc(N(C)C)ccc21 (stereo not drawn) | 1.3 |

Test system: not listed separately
Experiment: Decrease in PrPc expression on mouse N2a-cl3 cell surface after 2 days by ELISA
Type: functional, cell-based
Details: not given

| SMILES | inhibition |
| --- | --- |
| NC(=O)c1ccccc1NC(=O)c1cccnc1N1CCCCC1 | Active |
